Experimental data taken from US20110086429A1, “METHODS AND DEVICES FOR DETECTING OZONE AND CARBONYL-CONTAINING COMPOUNDS” (SIGMA-ALDRICH CO., priority 2007, published 2011).
Converted amounts (≈) assume the structure as drawn.

Experiment: Solubility in acetonitrile, DMSO and their mixtures
Format: physicochemical

solubility (organic solvent or mixture, acetonitrile, FIG. 3 at 25° C.) | Compound | solubility in DMSO (in words) (DMSO) | solubility in acetonitrile (in words) (acetonitrile)
~790 µM (≈ 84.6 µg/mL) | O=Cc1ccncc1 [pyridine-4-aldehyde] | – | –
– | O=[N+]([O-])c1ccc(NN=Cc2ccncc2)c([N+](=O)[O-])c1 [pyridine-4-aldehyde 2,4-DNPhydrazone, pyridine-4-aldehyde 2,4-dinitrophenylhydrazone] | relatively high concentration | poor solubility
